Experiment [1] deals with Lineage- CD11b+ monocytes in peripheral blood. Briefly: Monocyte analysis and counting after adjuvant injection in mice. It counts as in vivo, C57BL/6 mice. How it is done:
(§1) 24-Hours after injection of the TLR adjuvants, peripheral blood was drawn from C57BL/6 mice via cardiac puncture with lithium-heparin as anticoagulant. Red blood cell lysis was performed twice on pooled blood with Ammonium Chloride-based Buffer (Sigma, Steinheim, Germany) and cells were counted with the EasyCount™ System (Immunicon). […] Cells were finally washed three times and fixed for 15 min. with a 2% paraformaldehyde solution in PBS. Fluorescence minus one (FMO) controls were always included in the assays for fluorescent compensation setting. Samples were acquired on a flow cytometer (BD FACSCanto II) and data analyzed with the FACSDiva software (BD Biosciences). Monocytes were identified by their Side/Forward scatter properties and gated as CD3-/CD45R/B220-/Ly-6G-/NK1.1-(Lineage-)/CD11b+ cells. CD11b+ monocyte frequency was reported as a percentage of the total cells excluding debris.
as §1, with “24 hours” for “24-Hours”, “each immunomodulator,” for “the TLR adjuvants,”, “min” for “min.”, “monocytes” for “monocyte”
(§2) Cells were finally washed twice and fixed for 15 min. with a 2% paraformaldehyde solution in PBS. FMOs controls were always included in the assays. Samples were acquired on a flow cytometer (BD FACSCanto II) and data analyzed with the FACSDiva software (BD Biosciences). Monocytes were identified and counted by their Side/Forward scatter properties, excluding debris and gated as CD3-/CD45R/B220-/Ly-6G-/NK1.1-(Lineage-)/CD11b+ cells.

Experiment [2] has as its system CD11b+ peripheral blood monocytes. Briefly: Ex vivo uptake assay of Aβ1-42 by peripheral blood monocytes. Format: cell-based, C57BL/6 mice. How it is done:
(§3) Red blood cell lysis was performed twice on pooled blood with Ammonium Chloride-based Buffer (Sigma, Steinheim, Germany) and cells were counted with the EasyCount™ System (Immunicon).
(§4) Cells were finally washed twice and fixed for 15 min. with a 2% paraformaldehyde solution in PBS. FMOs controls were always included in the assays.
as §3

The test system of another experiment is APPSwe/PS1 mice. The experiment in a line: T-water maze. It counts as in vivo. The note with it: for T-water maze, spatial memory: Example 21, twelve weekly injections, 3D MPL 50 μg, CRX527 20 μg, CRX601 20 μg i.p., AS01B 1/10th human dose i.m., vs non treated, FIG. 24. How it is done:
Five groups of APPSwe/PS1 mice received one a week for a period of 12 weeks the following treatment: • Gr1: APPSwe/PS1+NaCl 0.9% n(=20), i.p. injections • Gr4: APPSwe/PS1+CRX527 (20 μg/mouse, 130 μl, n=10), i.p. injections • Gr5: APPSwe/PS1+CRX601 (20 μg/mouse, 130 μl, n=10), i.p. injections • Gr6: APPSwe/PS1+3D MPL (50 μg/mouse, 130 μl, n=10), i.p. injections • Gr8 APPSwe/PS1+AS15 ( 1/10th of human dose, 50 μl, n=10), i.m. injections • Gr9: APPSwe/PS1+AS01B ( 1/10th of human dose, 50 μl, n=10), i.m. injections
Mice were tested during the “light on” phase of the day. Behavioral experimenter was blinded to the genetic and treatment status of animals. To assess hippocampal-dependent spatial learning and memory, mice were trained in the T-water maze task. In this paradigm, we evaluate the mouse's ability to remember the spatial location of submerged platform. The T-maze apparatus (length of stem, 64 cm; length of arms, 30 cm; width, 12 cm; height of walls, 16 cm) was made of clear fiberglass and filled with water (23±1° C.) at a height of 12 cm. A platform (11×11 cm) was placed at the end of the target arm and was submerged 1 cm below the surface. The acquisition phase allows to evaluate animals for left-right spatial learning. During the first two trials, platforms were placed on each arms of the maze to test the spontaneous turning preference of the mouse. After these two trials, the least chosen arm was reinforced by the escape platform. The mice were placed in the stem of the T-maze and choose to swim either left or right until they found the submerged platform and escape to it, to a maximum of 60 s. After reaching the platform, the mice remained on it for 20 s and then were immediately placed back in the maze. […] Repeated trials were presented on the same day up to a maximum of 48 trials. A rest period of at least 10-15 min intervened between each block of 10 trials. A mouse was considered to have learned the task when it made no errors in a block of five consecutive trials. The reversal learning phase was then conducted 48 h later. During this phase, the same protocol was repeated, except that the mice were trained to find the escape platform on the opposite side to that on which they had learned on acquisition phase. The number of trials to reach the criterion (five of five correct choices made on consecutive trials) was measured as well as the latency to find the escape platform.

Experiment [3] deals with CD11b+ peripheral blood monocytes. The experiment in a line: In vivo uptake assay of Aβ42 after immunization or passive immunotherapy. More on the design: species or system C57BL/6 mice. To be noted: FIG. 22. How it is done:
as §4, §2

In experiment [4] the test system is human microglial cell line CHME. The experiment in a line: Phagocytosis of Aβ1-42 by CHME microglial cell line. It counts as cell-based. To be noted: FIG. 18. How it is done: Phagocytosis of beta-amyloid 1-42 peptide by the human microglial cell line CHME was observed after the addition of TLR2 agonist containing adjuvants Protollin and Pam3CysLip peptide. […] The synthetic peptide sequence of the Pam3Cys Lip peptide is described herein: Pam3Cys—SQ EPAAPAAEAT PAAEAP. Protollin was used at concentration 1 ug per ml based on the LPS content from Shigella flexneri. Pam3Cys lip peptide was used at concentration of 5 ug per ml of the pure tri-palmitoylated peptide.
Additionally, cells were imaged using 42 HiLyte 488 Fluo (Anaspec, Inc.) at 2 ug per ml in DMEM complete media (Invitrogen). Lysotracker red staining was performed and slides were mounted and co-stained with DAPI to show the nucleus (blue). […] Lysotracker red reagent was purchased from Invitrogen and used as manufacturer recommendations.

Where no end group is shown, it is not given here.

As to `CCCCCCCCCCC[C@H](CC(=O)N[C@H]1[C@H](OC[C@H](NC(=O)C[C@@H](CCCCCCCCCCC)OCCCCCCCCCC)C(=O)O)O[C@H](CO)[C@@H](OP(=O)(O)O)[C@@H]1OC(=O)C[C@@H](CCCCCCCCCCC)OCCCCCCCCCC)OCCCCCCCCCC` [CRX601], the “dose of maximum monocyte response” value in experiment [1] (single i.m., 0.2-20 ug/mouse, FIG. 12) stood at 10 µg. The “dose enough to trigger an increase of the monocyte count” value in experiment [1] (single i.m., 24 hrs, compared to PBS, FIG. 12) worked out at 1 µg. Further, the “effect on monocyte count at 20 μg dose” value in experiment [1] (single i.m., FIG. 12) was “down modulated”. Further, the “ex vivo uptake of Aβ42 by peripheral blood monocytes” value in experiment [2] (i.m. AS01B mouse full dose (5 ug per mouse) or CRX601 2 μg, vs PBS group, FIG. 14) is recorded as “uptake an higher amount of Aβ42”. Further, the entries for the “T-water maze, spatial memory” value in the experiment on APPSwe/PS1 mice and in the experiment with APPSwe/PS1 mice (listed as CRX 601) were “spatial memory improvement” and “significant improvements in behaviour”, respectively. Further, in the experiment on APPSwe/PS1 mice (Example 22, i.m., 12× weekly from 3 months old, CRX601 2 μg, CRX601 2 ug in AS03, 3D MPL 5 ug, AS01B 1/10 human dose, vs PBS, unpaired t-tests, FIG. 27A), the “T-water maze, cognitive functions” value is “significant improvement of their cognitive functions”. Moreover, the “antibody-mediated Aβ uptake in peripheral blood monocytes” value in experiment [3] (CRX601 at 20 ug when combined with AS03 emulsion) was “partially quenched”; in experiment [3] (CRX601 at 20 ug, single i.m., plus 15 ug 2E7) it was “triggers highest Aβ uptake”; in experiment [3] (single i.m. injection of different doses plus 15 ug 2E7, Aβ Fluor i.v. 24 hr later) it was “Dose-response observed”.
With QS21 [reference compound], in experiment [1] (24 hrs after single i.m. injection (5 μg QS21), FIG. 19A), the “number of monocytes, of total peripheral white blood cells” value is 9.1%. The “activated Ly6C+ monocytes” value in experiment [1] (24 hrs after single i.m. injection (5 μg QS21), FIG. 19B) worked out at 75%. For the same compound, the “ex vivo Aβ42 uptake by peripheral blood monocytes” value in experiment [2] (i.m. injection, 24 hrs, compared to PBS, QS21 (5 ug), liposomal MPL (5 ug) or MPL (5 ug), FIG. 20) is “does not promote Aβ uptake”.
In the case of “Pam3Cys—SQ EPAAPAAEAT PAAEAP (Pam3Cys-SQEPAAPAAEATPAAEAP) [Pam3CysLip peptide, TLR2 agonist, tri-palmitoylated peptide from Neisseria meningitidis strain 8047]”, the “phagocytosis of beta-amyloid 1-42 peptide” value in experiment [4] (5 ug per ml, pre-incubation 18 hrs) is on record as 86 % of cells. The amyloid phagocytic activity entry in experiment [4] (Pam3CysLip peptide 5 ug per ml, Protollin 1 ug per ml (LPS content), compared to PBS) is reported as “higher amyloid phagocytic activity”.
For `CCCCCCCCCCC[C@H](CC(=O)N[C@H]1[C@H](OC[C@H](NC(=O)C[C@@H](CCCCCCCCCCC)OC(=O)CCCCCCCCC)C(=O)O)O[C@H](CO)[C@@H](OP(=O)(O)O)[C@@H]1OC(=O)C[C@@H](CCCCCCCCCCC)OC(=O)CCCCCCCCC)OC(=O)CCCCCCCCC` [CRX527], the “T-water maze, spatial memory” value in the experiment on APPSwe/PS1 mice was “spatial memory improvement”; in the experiment with APPSwe/PS1 mice (listed as CRX 527), “significant improvements in behaviour”.

Source of the values: patent US20120321694A1, “COMPOSITIONS AND USES” (priority 2010, published 2012).
